Several values for one entry are separate records, joined by “and”; a condition that tells them apart may be missing. Equal values may be shown once. Read-outs that look alike come from different tables or passages of the source.
Assays:
[1] = test system: HBV rcDNA in HepDE19 cells; experiment: HepDE19 cell culture system, rcDNA quantitation using bDNA assay, MacSynergy II; type: cell-based, human hepatoma cell line
[2] = test system: D type HBV in primary human hepatocytes (HBsAg); experiment: microbe, parasite or virus in culture; type: cell-based
Method in brief: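 HBsAg inhibition versus DMSO control was determined by ELISA of day 8 supernatants. Percoll-purified PHHs received D type HBV one day after seeding, with compounds from day 2 and media changes every other day. Singles at 7 concentrations (3-fold, triplicate); pairs in 5×5 matrices.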

[3] = test system: D type HBV in primary human hepatocytes (HBeAg); experiment: microbe, parasite or virus in culture; type: cell-based; settings: Hepatitis B virus, Hepatocyte
Method in brief: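 HBeAg in day-8 culture supernatants was quantified by ELISA, and inhibition was calculated relative to DMSO-treated wells. Compounds were dosed from day 2 at seven 3-fold dilutions in triplicate, with medium changes every other day. The cells were Percoll-purified liver-perfusion hepatocytes infected with D-type HBV on day 1.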

[4] = Hepatitis B virus, HepDE19, read-out: ADDITIVE INHIBITION
[5] = Hepatitis B virus, HepDE19, read-out: AVERAGE % INHIBITION (rcDNA)

CC(C)OC(=O)OCOP(=O)(CO[C@H](C)Cn1cnc2c(N)ncnc21)OCOC(=O)OC(C)C.O=C(O)/C=C/C(=O)O [TDF, tenofovir disoproxil fumarate, reference compound]
SYNERGY PLOT (99.9%) […]. 96% [1]: 0
inhibition at 0.004 µM ([1]; Hepatitis B virus, HepDE19): -5.27%
inhibition at 0.008 µM ([1]; Hepatitis B virus, HepDE19): 0.67%
inhibition at 0.016 µM ([1]; Hepatitis B virus, HepDE19): 2.82%
inhibition at 0.031 µM ([1]; Hepatitis B virus, HepDE19): 6.57%
inhibition at 0.063 µM ([1]; Hepatitis B virus, HepDE19): 41.7%
inhibition at 0.003906 µM [1, 4]: -5.27%
inhibition at 0.00781 µM [1, 4]: 0.67%
inhibition at 0.01563 µM [1, 4]: 2.82%
inhibition at 0.03125 µM [1, 4]: 6.57%
inhibition at 0.0625 µM [1, 4]: 41.7%
inhibition at 0.125 µM [1, 4]: 66.1%
inhibition at 0.25 µM [1, 4]: 81.5%
inhibition at 0.5 µM [1, 4]: 90.8%
inhibition at 1 µM [1, 4]: 94.5%
inhibition at 0.125 µM [1, 5]: 66.1%
inhibition at 0.25 µM [1, 5]: 81.5%
inhibition at 0.5 µM [1, 5]: 90.8%
inhibition at 1 µM [1, 5]: 94.5%
EC50 ([1]; Hepatitis B virus, HepDE19, read-out: Inhibitor B EC50): 89 nM
EC50 ([1]; Hepatitis B virus, HepDE19, rcDNA by bDNA assay, single agent, read-out: INHIBITOR B EC50): 88 nM
AVERAGE % INHIBITION (HBsAg) ([2]; 3 replicates, Compound 24 0.00 nM, TDF nM: 10.00, 3.33, 1.11, 0.37, 0.12): −3.32% and −3.31% and −6.65% and −1.28% and −3.54%
inhibition at 0.00012 µM ([2]; Hepatitis B virus, Hepatocyte, TDF 0.12 nM alone, read-out: AVERAGE % INHIBITION HBsAg): 3.39%
inhibition at 0.00037 µM ([2]; Hepatitis B virus, Hepatocyte, TDF 0.37 nM alone, read-out: AVERAGE % INHIBITION HBsAg): -0.3%
inhibition at 0.00333 µM ([2]; Hepatitis B virus, Hepatocyte, read-out: AVERAGE % INHIBITION HBsAg, TDF 3.33 nM alone): -0.9%
inhibition at 0.01 µM ([2]; Hepatitis B virus, Hepatocyte, read-out: AVERAGE % INHIBITION HBsAg, TDF 10.00 nM alone): -5.9%
EC50 ([2]; Hepatitis B virus, Hepatocyte, read-out: Inhibitor A EC50): > 100 nM
ADDITIVE INHIBITION (HBsAg) ([2]; expected from additive interaction, Compound 24 0.00 nM, TDF nM by row: r27 10.00, r28 3.33, r29 1.11, r30 0.37, r31 0.12): −6.65% and −1.28% and −3.54% and −3.32% and −3.31%
inhibition at 0.00012 µM ([3]; read-out: AVERAGE % INHIBITION HBeAg, TDF 0.12 nM alone): 7.02%
inhibition at 0.00012 µM ([3]; read-out: AVERAGE % INHIBITION HBeAg, TDF 0.12 nM alone (compound 23 study)): 4.4%
inhibition at 0.00037 µM ([3]; read-out: AVERAGE % INHIBITION HBeAg, TDF 0.37 nM alone): 6.23%
inhibition at 0.00037 µM ([3]; read-out: AVERAGE % INHIBITION HBeAg, TDF 0.37 nM alone (compound 23 study)): 6.74%
inhibition at 0.00333 µM ([3]; read-out: AVERAGE % INHIBITION HBeAg, TDF 3.33 nM alone): 11.6%
inhibition at 0.00333 µM ([3]; read-out: AVERAGE % INHIBITION HBeAg, TDF 3.33 nM alone (compound 23 study)): 9.05%
inhibition at 0.01 µM ([3]; read-out: AVERAGE % INHIBITION HBeAg, TDF 10.00 nM alone): 6.07%
inhibition at 0.01 µM ([3]; read-out: AVERAGE % INHIBITION HBeAg, TDF 10.00 nM alone (compound 23 study)): 0.72%
EC50 ([3]; read-out: Inhibitor A EC50): > 100 nM
